Experimental data reported in US9296757B2, “Substituted benzothienopyrimidines” (BAYER PHARMA AKTIENGESELLSCHAFT, priority 2012, dated 2016).

molecular target: human full-length MKNK1 (Homo sapiens (Human), UniProt Q9BUB5, T344D); assay: MKNK1 kinase high ATP assay (TR-FRET); type: biochemical; conditions: high ATP (2 mM final), 15 min preincubation with enzyme
Method in brief: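 GST-tagged full-length MKNK1 (T344D), insect-cell expressed, preincubated 15 min at 22 °C with compound, then reacted 30 min at 22 °C with 2 mM ATP and 0.06 μM biotinylated peptide in HEPES pH 7.5 buffer (final concentrations). Phospho-peptide detected by TR-FRET (665/620 nm ratio), normalised to no-inhibitor and no-enzyme controls.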

human full-length MKNK1, sequence (Q9BUB5 other isoform, or with tags, fused parts or gaps T344D): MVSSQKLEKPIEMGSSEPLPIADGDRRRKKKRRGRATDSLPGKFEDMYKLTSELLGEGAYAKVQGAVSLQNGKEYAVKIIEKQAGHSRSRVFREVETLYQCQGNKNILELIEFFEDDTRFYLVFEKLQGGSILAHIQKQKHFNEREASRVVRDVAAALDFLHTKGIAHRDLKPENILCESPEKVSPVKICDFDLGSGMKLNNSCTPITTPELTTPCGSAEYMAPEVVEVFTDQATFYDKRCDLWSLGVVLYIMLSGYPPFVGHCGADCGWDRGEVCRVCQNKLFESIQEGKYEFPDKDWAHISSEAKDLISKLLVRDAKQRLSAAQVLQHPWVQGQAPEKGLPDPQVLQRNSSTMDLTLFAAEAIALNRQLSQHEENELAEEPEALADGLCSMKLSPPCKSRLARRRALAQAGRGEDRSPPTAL

Q: Which IC50 does the source give for `CCN(CCOC)C(=O)C1CCc2c(sc3ncnc(Nc4ccc5[nH]c(=O)sc5c4)c23)C1` (racemic) [Example 70, (RS)-N-ethyl-N-(2-methoxyethyl)-4-[(2-oxo-2,3-dihydro-1,3-benzothiazol-6-yl)amino]-5,6,7,8-tetrahydro[1]benzothieno[2,3-d]pyrimidine-7-carboxamide] here?
A: 24 nM

Q: With `O=C(C1CCc2c(sc3ncnc(Nc4ccc5[nH]c(=O)sc5c4)c23)C1)N1CCC(CO)CC1` (racemic) [Example 71, (RS)-6-[(7-{[4-(hydroxymethyl)piperidin-1-yl]carbonyl}-5,6,7,8-tetrahydro[1]benzothieno[2,3-d]pyrimidin-4-yl)amino]-1,3-benzothiazol-2(3H)-one] as the compound, how does the IC50 read?
A: 47 nM

Q: For `COCCN1CCN(C(=O)C2CCc3c(sc4ncnc(Nc5ccc6[nH]c(=O)sc6c5)c34)C2)CC1` (racemic) [Example 72, (RS)-6-[(7-{[4-(2-methoxyethyl)piperazin-1-yl]carbonyl}-5,6,7,8-tetrahydro[1]benzothieno[2,3-d]pyrimidin-4-yl)amino]-1,3-benzothiazol-2(3H)-one], which IC50 is on record?
A: 44 nM

Q: Which IC50 does the source give for `CN(C)C1CCN(C(=O)C2CCc3c(sc4ncnc(Nc5ccc6[nH]c(=O)sc6c5)c34)C2)C1` (racemic) [Example 73, 6-{[(7RS)-7-{[(3RS)-3-(dimethylamino)pyrrolidin-1-yl]carbonyl}-5,6,7,8-tetrahydro[1]benzothieno[2,3-d]pyrimidin-4-yl]amino}-1,3-benzothiazol-2(3H)-one] here?
A: 34 nM

Q: Which IC50 does the source give for `CN1CC2CC1CN2C(=O)C1CCc2c(sc3ncnc(Nc4ccc5[nH]c(=O)sc5c4)c23)C1` (racemic) [Example 74, 6-{[(7RS)-7-{[(1RS,4RS)-5-methyl-2,5-diazabicyclo[2.2.1]hept-2-yl]carbonyl}-5,6,7,8-tetrahydro[1]benzothieno[2,3-d]pyrimidin-4-yl]amino}-1,3-benzothiazol-2(3H)-one] here?
A: 47 nM

Q: How did the IC50 turn out when `N#CC1CCCN(C(=O)C2CCc3c(sc4ncnc(Nc5ccc6[nH]c(=O)sc6c5)c34)C2)C1` (racemic) [Example 75, (3RS)-1-({(7RS)-4-[(2-oxo-2,3-dihydro-1,3-benzothiazol-6-yl)amino]-5,6,7,8-tetrahydro[1]benzothieno[2,3-d]pyrimidin-7-yl}carbonyl)piperidine-3-carbonitrile] was run?
A: 32 nM

Q: Which IC50 does the source give for `N#CC1CCN(C(=O)C2CCc3c(sc4ncnc(Nc5ccc6[nH]c(=O)sc6c5)c34)C2)CC1` (racemic) [Example 76, (RS)-1-({4-[(2-oxo-2,3-dihydro-1,3-benzothiazol-6-yl)amino]-5,6,7,8-tetrahydro[1]benzothieno[2,3-d]pyrimidin-7-yl}carbonyl)piperidine-4-carbonitrile] here?
A: 54 nM

Q: For `COCC1CCCN1C(=O)C1CCc2c(sc3ncnc(Nc4ccc5[nH]c(=O)sc5c4)c23)C1` (racemic) [Example 77, 6-{[(7RS)-7-{[(2RS)-2-(methoxymethyl)pyrrolidin-1-yl]carbonyl}-5,6,7,8-tetrahydro[1]benzothieno[2,3-d]pyrimidin-4-yl]amino}-1,3-benzothiazol-2(3H)-one], which IC50 is on record?
A: 41 nM

Q: For `O=C(C1CCc2c(sc3ncnc(Nc4ccc5[nH]c(=O)sc5c4)c23)C1)N1CCN(CC2CC2)CC1` (racemic) [Example 78, (RS)-6-[(7-{[4-(cyclopropylmethyl)piperazin-1-yl]carbonyl}-5,6,7,8-tetrahydro[1]benzothieno[2,3-d]pyrimidin-4-yl)amino]-1,3-benzothiazol-2(3H)-one], which IC50 is on record?
A: 34 nM

Q: Which IC50 does the source give for `O=C(C1CCc2c(sc3ncnc(Nc4ccc5[nH]c(=O)sc5c4)c23)C1)N1CC(N2CCCCC2)C1` (racemic) [Example 79, (RS)-6-[(7-{[3-(piperidin-1-yl)azetidin-1-yl]carbonyl}-5,6,7,8-tetrahydro[1]benzothieno[2,3-d]pyrimidin-4-yl)amino]-1,3-benzothiazol-2(3H)-one] here?
A: 38 nM

Q: Which IC50 does the source give for `CN(C(=O)C1CCc2c(sc3ncnc(Nc4ccc5[nH]c(=O)sc5c4)c23)C1)C1CCOC(C)(C)C1` (racemic) [Example 80, (RS)-N-(2,2-dimethyltetrahydro-2H-pyran-4-yl)-N-methyl-4-[(2-oxo-2,3-dihydro-1,3-benzothiazol-6-yl)amino]-5,6,7,8-tetrahydro[1]benzothieno[2,3-d]pyrimidine-7-carboxamide] here?
A: 42 nM

Q: For `CN1CCN(C(=O)C2CCc3c(sc4ncnc(Nc5ccc6[nH]c(=O)sc6c5)c34)C2)CC1CCO` (racemic) [Example 81, 6-{[(7RS)-7-{[(3RS)-3-(2-hydroxyethyl)-4-methylpiperazin-1-yl]carbonyl}-5,6,7,8-tetrahydro[1]benzothieno[2,3-d]pyrimidin-4-yl]amino}-1,3-benzothiazol-2(3H)-one], which IC50 is on record?
A: 34 nM

Q: `CN(CCN1CCOCC1)C(=O)C1CCc2c(sc3ncnc(Nc4ccc5[nH]c(=O)sc5c4)c23)C1` (racemic) [Example 82, (RS)-N-methyl-N-[2-(morpholin-4-yl)ethyl]-4-[(2-oxo-2,3-dihydro-1,3-benzothiazol-6-yl)amino]-5,6,7,8-tetrahydro[1]benzothieno[2,3-d]pyrimidine-7-carboxamide] was tested. Which IC50 did it give?
A: 46 nM

Q: Which IC50 does the source give for `O=C(C1CCc2c(sc3ncnc(Nc4ccc5[nH]c(=O)sc5c4)c23)C1)N1CC2(COC2)C1` (racemic) [Example 83, (RS)-6-{[7-(2-oxa-6-azaspiro[3.3]hept-6-ylcarbonyl)-5,6,7,8-tetrahydro[1]benzothieno[2,3-d]pyrimidin-4-yl]amino}-1,3-benzothiazol-2(3H)-one] here?
A: 52 nM

Q: How did the IC50 turn out when `COC1CCCN(C(=O)C2CCc3c(sc4ncnc(Nc5ccc6[nH]c(=O)sc6c5)c34)C2)C1` (racemic) [Example 84, 6-{[(7RS)-7-{[(3RS)-3-methoxypiperidin-1-yl]carbonyl}-5,6,7,8-tetrahydro[1]benzothieno[2,3-d]pyrimidin-4-yl]amino}-1,3-benzothiazol-2(3H)-one] was run?
A: 30 nM

Q: With `COc1cc2[nH]c(=O)sc2cc1Nc1ncnc2sc3c(c12)CCC(C(=O)N(C)C)C3` (racemic) [Example 85, (RS)-4-[(5-methoxy-2-oxo-2,3-dihydro-1,3-benzothiazol-6-yl)amino]-N,N-dimethyl-5,6,7,8-tetrahydro[1]benzothieno[2,3-d]pyrimidine-7-carboxamide] as the compound, how does the IC50 read?
A: 4 nM

Q: How did the IC50 turn out when `CCN(C(=O)C1CCc2c(sc3ncnc(Nc4cc5sc(=O)[nH]c5cc4OC)c23)C1)C(C)C` (racemic) [Example 86, (RS)—N-Ethyl-N-isopropyl-4-[(5-methoxy-2-oxo-2,3-dihydro-1,3-benzothiazol-6-yl)amino]-5,6,7,8-tetrahydro[1]benzothieno[2,3-d]pyrimidine-7-carboxamide] was run?
A: 3 nM

Q: How did the IC50 turn out when `CCCN(CCOC)C(=O)C1CCc2c(sc3ncnc(Nc4cc5sc(=O)[nH]c5cc4OC)c23)C1` (racemic) [Example 87, (RS)—N-(2-Methoxyethyl)-4-[(5-methoxy-2-oxo-2,3-dihydro-1,3-benzothiazol-6-yl)amino]-N-propyl-5,6,7,8-tetrahydro[1]benzothieno[2,3-d]pyrimidine-7-carboxamide] was run?
A: 2 nM

Q: Which IC50 does the source give for `CCCCN(CC#N)C(=O)C1CCc2c(sc3ncnc(Nc4cc5sc(=O)[nH]c5cc4OC)c23)C1` (racemic) [Example 88, (RS)—N-Butyl-N-(cyanomethyl)-4-[(5-methoxy-2-oxo-2,3-dihydro-1,3-benzothiazol-6-yl)amino]-5,6,7,8-tetrahydro[1]benzothieno[2,3-d]pyrimidine-7-carboxamide] here?
A: 1 nM

Q: Which IC50 does the source give for `CCCCN(C)C(=O)C1CCc2c(sc3ncnc(Nc4cc5sc(=O)[nH]c5cc4OC)c23)C1` (racemic) [Example 89, (RS)—N-Butyl-4-[(5-methoxy-2-oxo-2,3-dihydro-1,3-benzothiazol-6-yl)amino]-N-methyl-5,6,7,8-tetrahydro[1]benzothieno[2,3-d]pyrimidine-7-carboxamide] here?
A: 1.9 nM

Q: Which IC50 does the source give for `CCN(CCOC)C(=O)C1CCc2c(sc3ncnc(Nc4cc5sc(=O)[nH]c5cc4OC)c23)C1` (racemic) [Example 90, (RS)—N-Ethyl-N-(2-methoxyethyl)-4-[(5-methoxy-2-oxo-2,3-dihydro-1,3-benzothiazol-6-yl)amino]-5,6,7,8-tetrahydro[1]benzothieno[2,3-d]pyrimidine-7-carboxamide] here?
A: 1 nM

Q: For `N#CC1CN(C(=O)C2CCc3c(sc4ncnc(Nc5ccc6[nH]c(=O)sc6c5)c34)C2)C1` (racemic) [Example 91, (RS)-1-({4-[(2-Oxo-2,3-dihydro-1,3-benzothiazol-6-yl)amino]-5,6,7,8-tetrahydro[1]benzothieno[2,3-d]pyrimidin-7-yl}carbonyl)azetidine-3-carbonitrile], which IC50 is on record?
A: 38.7 nM

Q: Which IC50 does the source give for `COc1cc2[nH]c(=O)sc2cc1Nc1ncnc2sc3c(c12)CCC(C(=O)N(CCN(C)C)Cc1ccccc1)C3` (racemic) [Example 92, (RS)—N-Benzyl-N-[2-(dimethylamino)ethyl]-4-[(5-methoxy-2-oxo-2,3-dihydro-1,3-benzothiazol-6-yl)amino]-5,6,7,8-tetrahydro[1]benzothieno[2,3-d]pyrimidine-7-carboxamide] here?
A: 0.6 nM

Q: Which IC50 does the source give for `COCCN(CCOC)C(=O)C1CCc2c(sc3ncnc(Nc4cc5sc(=O)[nH]c5cc4OC)c23)C1` (racemic) [Example 93, (RS)—N,N-bis(2-methoxyethyl)-4-[(5-methoxy-2-oxo-2,3-dihydro-1,3-benzothiazol-6-yl)amino]-5,6,7,8-tetrahydro[1]benzothieno[2,3-d]pyrimidine-7-carboxamide] here?
A: 0.7 nM

Q: Which IC50 does the source give for `COc1cc2[nH]c(=O)sc2cc1Nc1ncnc2sc3c(c12)CCC(C(=O)O)C3` (centres unmarked) [Example 33, 4-[(5-Methoxy-2-oxo-2,3-dihydro-1,3-benzothiazol-6-yl)amino]-5,6,7,8-tetrahydro[1]benzothieno[2,3-d]pyrimidine-7-carboxylic acid] here?
A: 42 nM

Q: Which IC50 does the source give for `O=C(C1CCc2c(sc3ncnc(Nc4ccc5[nH]c(=O)sc5c4)c23)C1)N1CCN(Cc2ccccc2)CC1` (centres unmarked) [Example 38, 6-({7-[(4-benzylpiperazin-1-yl)carbonyl]-5,6,7,8-tetrahydro[1]benzothieno[2,3-d]pyrimidin-4-yl}amino)-1,3-benzothiazol-2(3H)-one] here?
A: 44 nM
